What all share (format): cell-based, mouse
The test system of one assay is EBM^9 explants. In words: Neural crest formation from EBM^9 explants. As for the experimental part: Sox 10 probes were transcribed from pSox10E.1 (obtained from Dr. Peter Koopman, IMB, Brisbane, Australia). Anti-sense and sense probes were transcribed from HindIII or BamHI cut pSox10E.1 with […] or T3 RNA polymerase respectively.
EBM^9 were collected, washed in PBS, treated with 0.5 mM EGTA pH 7.5 for 3 minutes, washed in PBS and disaggregated to small clumps (20-200 cells) by trituration. Cell clumps were allowed to settle and single cells liberated during trituration were removed with the supernatant before plating onto tissue culture grade plasticware which had been coated with cellular fibronectin (1 μg/cm^2; obtained from M. D. Bettess, Department of Biochemistry, Adelaide University, Australia) and allowed to dry. Cells were cultured in Hams F12 containing 3% FCS and 10 ng/ml FGF2 and supplemented with either 0.1% 25 μM staurosporine (Sigma) in DMSO (final concentration, 25 nM) or 0.1% DMSO. Cellular aggregates were allowed to differentiate for 48 hours before fixation in 4% PFA for 30 minutes.

Assay [1] has as its system ES cells. In words: Morphology of ES cell aggregates in suspension culture. To be noted: medium supplemented with 100 units of LIF; data not shown. As for the experimental part: (§1) All cell aggregates were formed from single cell suspensions (1×10^5 cells/ml) of ES or EPL cells cultured in bacterial petri dishes. ES cell and EPL cell embryoid bodies (EB and EPLEB respectively) were formed as described in Lake et al. (2000). EBM, cell aggregates formed and maintained in MEDII, were formed from ES cells aggregated in IC:DMEM (DMEM (Gibco BRL #12800) with 10% foetal calf serum (FCS; Commonwealth Serum Laboratories), […] gentamycin, 1 mM L-glutamine and 0.1 mM B-mercaptoethanol (B-ME)) supplemented with 50% MEDII. Aggregates were divided 1 in 2 on days 2 and 4, and medium was changed on days 2 and 4 and then daily until collection. […] The time in days from formation of aggregates was denoted by superscript with the day of formation denoted as day 0. For example, EBM 5 days after formation are represented as EBM^5.
For continued suspension culture of EB and EBM, aggregates on day 7 were transferred to serum free medium (50% DMEM, 50% Hams F12 (Gibco BRL # 11765) supplemented with 1× ITSS supplement (Boehringer Mannhiem) and 10 ng/ml FGF2 (Peprotech Inc.)).
EB^4 and EBM^4 were fixed with 4% PFA for 30 minutes before embedding in paraffin wax and sectioning as described in Hogan et al., 1994. 7 μm sections were stained with haematoxylin:eosin as described by Kaufman, 1992 or with Hoescht […] (5 μg/ml) in PBS; Sigma) for 5 minutes.

Assay [2] relates to ES cells. Put plainly: Differentiation potential of seeded ES cell aggregates (neurons, beating cardiocytes). To be noted: 10-20 ng/ml added to the medium from day 4. Here is the method: as §1
For adherent culture, aggregates were seeded onto gelatin treated tissue culture grade plasticware (Falcon) on day 7 of development in 500 μl DMEM supplemented with 10% FCS (Commonwealth serum Laboratories). […]
EB^7 and EBM^7 were seeded as described above and assessed on days 8, 10, 12 and 14 for the presence of neurons, identified morphologically by the presence of axonal projections (and confirmed by the expression of NF200; data not shown), and beating cardiocytes, identified morphologically by rhythmical contraction of cells within the aggregate.

Take `CN[C@@H]1C[C@H]2O[C@@](C)([C@@H]1OC)n1c3ccccc3c3c4c(c5c6ccccc6n2c5c31)C(=O)NC4` [staurosporine]: the “Sox10 expression by in situ hybridisation” value in the assay on EBM^9 explants (25 nM, 48 hours culture) is given as “observed in all cells”. Also, the “morphology of EBM explants” value in the assay with EBM^9 explants (25 nM, within three hours of seeding) was “surrounded by a halo of differentiating cells”. In the assay with EBM^9 explants (data not shown), the “concentration required for uniform differentiation” value is listed as “greater than 10 nM”.
As to “LIF: cytokine leukaemia inhibitory factor”, the “morphology and gene expression profile of ES cell aggregates” value in the assay with ES cells [1] was “did not duplicate the morphology or gene expression profile of EBM”.

B1: FGF4: growth factor from the FGF family (protein, UniProt P08620 31-206, looked up)
Fibroblast growth factor 4: APTAPNGTLEAELERRWESLVALSLARLPVAAQPKEAAVQSGAGDYLLGIKRLRRLYCNVGIGFHLQALPDGRIGGAHADTRDSLLELSPVERGVVSIFGVASRFFVAMSSKGKLYGSPFFTDECTFKEILLPNNYNAYESYKYPGMFIALSKNGKTKKGNRVSPTMKVTHFLPRL
B1: the “influence on the outcome of differentiation” value in the assay on ES cells [2] is “did not influence the outcome of differentiation”.

The record behind these values is patent US20030134413A1, “Cell production” (priority 2000, published 2003).
